Experimental data as given in ChEMBL document CHEMBL3112483, “Synthesis and cytotoxic activity of MOM-ether analogs of isosteviol” (Bioorg Med Chem Lett, 2014).

Key:
[1] = Cytotoxicity against p53 deficient human H1299 cells at 100 uM after 24 hrs by MTT assay; type: functional; settings: NCI-H1299, 24 h, read-out: GI
[2] = tested on: A549; test: Cytotoxicity against human A549 cells; type: functional, cell-based
[3] = tested on: NCI-H1299; test: Induction of apoptosis in human […] cells expressing wild type p53 at IC50 assessed as histone release by ELISA relative to control; type: functional
[4] = Induction of apoptosis in human NL20 cells at IC50 assessed as histone release by ELISA relative to control; type: cell-based
[5] = Cytotoxicity against p53 deficient human H1299 cells after 24 hrs by MTT assay; type: functional, cell-based; settings: NCI-H1299, 24 h
[6] = tested on: NCI-H1299; test: Induction of apoptosis in p53 deficient human H1299 cells at IC50 assessed as histone release by ELISA relative to control; type: functional
[7] = Cytotoxicity against human NL20 cells at IC50 after 24 hrs by MTT assay; type: cell-based; settings: nl20, 24 h

Compound	inhibition of growth at 100 µM [1] [%]	also measured
COCO[C@@H]1C[C@]23CC[C@@H]4[C@](C)(COC(=O)NCc5ccccc5)CCC[C@@]4(C)[C@@H]2CC[C@@]1(C)C3	50	–
COCO[C@@H]1C[C@]23CC[C@@H]4[C@](C)(COC(=O)c5ccccc5)CCC[C@@]4(C)[C@@H]2CC[C@@]1(C)C3	8	–
C[C@@]12CC[C@@H]3[C@@](CC[C@@H]4[C@](C)(COC(=O)/C=C/C(F)(F)F)CCC[C@]43C)(C[C@H]1O)C2	–	IC50 [2]: 4.1 µM
COCO[C@@H]1C[C@]23CC[C@@H]4[C@](C)(COC(C)=O)CCC[C@@]4(C)[C@@H]2CC[C@@]1(C)C3	13	–
COCO[C@@H]1C[C@]23CC[C@@H]4[C@](C)(CO)CCC[C@@]4(C)[C@@H]2CC[C@@]1(C)C3	15	–
COCO[C@@H]1C[C@]23CC[C@@H]4[C@](C)(COC(=O)Nc5ccc(C(C)=O)cc5)CCC[C@@]4(C)[C@@H]2CC[C@@]1(C)C3	60	–
COCO[C@@H]1C[C@]23CC[C@@H]4[C@](C)(COC(=O)NCc5ccc(OC)cc5)CCC[C@@]4(C)[C@@H]2CC[C@@]1(C)C3	89	fold change (FC) [3]: 2; fold change (FC) [4]: 4; IC50 [5]: 21 µM; fold change (FC) [6]: 7; Activity [7]: 20%
CCCCCCCC(=O)OC[C@]1(C)CCC[C@]2(C)[C@@H]1CC[C@@]13C[C@@H](OCOC)[C@@](C)(CC[C@H]12)C3	95	fold change (FC) [3]: 2; fold change (FC) [4]: 4; IC50 [5]: 14 µM; fold change (FC) [6]: 10; Activity [7]: 20%
COCO[C@@H]1C[C@]23CC[C@@H]4[C@](C)(COC(=O)COc5ccccc5)CCC[C@@]4(C)[C@@H]2CC[C@@]1(C)C3	70	–
COCO[C@@H]1C[C@]23CC[C@@H]4[C@](C)(COC(=O)C(C)C)CCC[C@@]4(C)[C@@H]2CC[C@@]1(C)C3	20	–
CCCNC(=O)OC[C@]1(C)CCC[C@]2(C)[C@@H]1CC[C@@]13C[C@@H](OCOC)[C@@](C)(CC[C@H]12)C3	20	–
CCCCCCCC(=O)OC[C@]1(C)CCC[C@]2(C)[C@@H]1CC[C@@]13C[C@@H](O)[C@@](C)(CC[C@H]12)C3	48	–
COCO[C@@H]1C[C@]23CC[C@@H]4[C@](C)(COC(=O)Nc5ccccc5)CCC[C@@]4(C)[C@@H]2CC[C@@]1(C)C3	65	–
